Experiments:
[1] = target: T1, hTRPV3 (Homo sapiens, UniProt Q8NET8); experiment: TRPV3 channel Ca2+ microfluorimetry (2-APB 30 μM); assay type: cell-based; conditions: agonist 2-APB 30 μM
T1 construct: Eurofins-CEREP or Eurofins-PANLABS (contract assay)
T1 sequence (Q8NET8 1-790): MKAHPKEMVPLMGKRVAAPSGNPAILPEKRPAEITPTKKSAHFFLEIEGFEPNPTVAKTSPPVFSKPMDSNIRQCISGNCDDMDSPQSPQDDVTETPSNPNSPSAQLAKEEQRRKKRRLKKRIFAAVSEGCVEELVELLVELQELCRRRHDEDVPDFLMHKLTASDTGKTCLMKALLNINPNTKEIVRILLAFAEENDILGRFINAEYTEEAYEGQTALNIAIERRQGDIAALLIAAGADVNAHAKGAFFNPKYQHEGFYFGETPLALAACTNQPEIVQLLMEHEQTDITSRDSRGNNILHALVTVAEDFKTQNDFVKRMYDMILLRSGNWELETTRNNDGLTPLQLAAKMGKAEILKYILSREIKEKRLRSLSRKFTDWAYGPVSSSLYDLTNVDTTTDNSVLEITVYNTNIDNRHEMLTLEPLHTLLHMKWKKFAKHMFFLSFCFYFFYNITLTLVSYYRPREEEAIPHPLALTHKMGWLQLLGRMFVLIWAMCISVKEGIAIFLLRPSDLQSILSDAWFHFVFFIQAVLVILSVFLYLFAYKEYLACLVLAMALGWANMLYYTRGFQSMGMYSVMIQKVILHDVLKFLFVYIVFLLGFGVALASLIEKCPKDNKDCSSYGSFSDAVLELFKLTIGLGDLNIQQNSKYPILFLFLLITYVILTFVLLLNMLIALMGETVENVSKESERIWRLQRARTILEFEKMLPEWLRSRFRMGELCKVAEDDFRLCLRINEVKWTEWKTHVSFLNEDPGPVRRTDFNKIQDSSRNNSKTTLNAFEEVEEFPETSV
Excerpt: (§1) The effects of compound 34 have been evaluated on different ion channels and receptors implicated in pain-related processes to assess the selectivity for TRPM8 channels. First, some TRP channels that play a role in temperature integration and nociception were selected, including hTRPV1, hTRPV3, hTRPA1 and TRPM3. Additionally, the evaluation encompassed the hASIC3 channel with widespread distribution within the peripheral nervous system and contributions to the excitability of primary sensory neurons. In each instance, the compound was subjected to evaluation at a consistent concentration of 10 µM.
(§2) Calcium fluorometry, Patch-Clamp assays and in vivo experiments were performed using the methodology previously described for TRPM8 [35] or TRPM3 [61]. In the Patch -Clamp experiments, the intracellular pipette solution contained (in mM) 140 KCl, 5 EGTA, and 10 mM HEPES, adjusted to pH 7.2 with KOH, and the extracellular solution contained (in mM) 140 NaCl, 2 CaCl2, 1 MgCl2, 10 D-glucose and 10 HEPES, adjusted to pH 7.4 with NaOH. Selectivity against TRPV1, TRPV3, TRPA1 and ASIC3 was subcontracted to Eurofins-CEREP or Eurofins-PANLABS (see ref. [35] for more details).

[2] = target: hCB2 (Homo sapiens, UniProt P34972); experiment: Radioligand binding at cannabinoid CB2 receptor; conditions: radioligand [3H]WIN 55212-2
Excerpt: (§3) Furthermore, the investigation extended to measuring the binding affinity of compound 34 to calcitonin gene-related peptide hCGRPR, cannabinoid hCB2 and muscarinic hM3 receptors, which are all relevant to different pain conditions.

[3] = target: T2, hTRPA1 (Homo sapiens, UniProt O75762); experiment: TRPA1 channel Ca2+ microfluorimetry (allylisothiocyanate 10 μM); assay type: cell-based; conditions: agonist allylisothiocyanate 10 μM
T2 construct: Eurofins-CEREP or Eurofins-PANLABS (contract assay)
Excerpt: as §1, §2

[4] = target: hM3 (Homo sapiens, UniProt P20309); experiment: Radioligand binding at muscarinic M3 receptor; conditions: radioligand [3H]4-DMAP
Excerpt: as §3

[5] = target: T3, hASIC3 channel (Homo sapiens, UniProt Q9UHC3); experiment: ASIC3 channel functional assay (buffer pH 5.5); assay type: cell-based
T3 construct: Eurofins-CEREP or Eurofins-PANLABS (contract assay)
T3 sequence (Q9UHC3 1-531): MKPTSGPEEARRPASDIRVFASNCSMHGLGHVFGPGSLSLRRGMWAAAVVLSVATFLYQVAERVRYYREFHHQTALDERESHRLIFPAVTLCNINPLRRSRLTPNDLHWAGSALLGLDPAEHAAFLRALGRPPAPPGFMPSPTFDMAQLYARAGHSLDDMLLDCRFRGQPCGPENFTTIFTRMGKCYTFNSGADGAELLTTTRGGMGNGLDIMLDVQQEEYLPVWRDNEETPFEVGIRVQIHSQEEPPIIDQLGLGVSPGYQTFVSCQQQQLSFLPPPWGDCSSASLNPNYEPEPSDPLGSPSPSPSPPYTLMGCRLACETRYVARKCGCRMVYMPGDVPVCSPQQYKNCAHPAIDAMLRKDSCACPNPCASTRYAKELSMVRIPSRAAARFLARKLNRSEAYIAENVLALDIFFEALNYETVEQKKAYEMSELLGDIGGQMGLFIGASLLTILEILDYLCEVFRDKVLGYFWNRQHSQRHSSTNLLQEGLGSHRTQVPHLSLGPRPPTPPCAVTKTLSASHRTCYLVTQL
Excerpt: as §1, §2

[6] = target: T4, rTRPM8 (Rattus norvegicus, UniProt Q8R455); experiment: Patch-Clamp electrophysiology on single HEK293 cells expressing rat TRPM8; assay type: cell-based; conditions: activation by 100 µM menthol; holding voltage −60 mV
T4 construct: expressed in transfected cells
T4 sequence (Q8R455 whole entry): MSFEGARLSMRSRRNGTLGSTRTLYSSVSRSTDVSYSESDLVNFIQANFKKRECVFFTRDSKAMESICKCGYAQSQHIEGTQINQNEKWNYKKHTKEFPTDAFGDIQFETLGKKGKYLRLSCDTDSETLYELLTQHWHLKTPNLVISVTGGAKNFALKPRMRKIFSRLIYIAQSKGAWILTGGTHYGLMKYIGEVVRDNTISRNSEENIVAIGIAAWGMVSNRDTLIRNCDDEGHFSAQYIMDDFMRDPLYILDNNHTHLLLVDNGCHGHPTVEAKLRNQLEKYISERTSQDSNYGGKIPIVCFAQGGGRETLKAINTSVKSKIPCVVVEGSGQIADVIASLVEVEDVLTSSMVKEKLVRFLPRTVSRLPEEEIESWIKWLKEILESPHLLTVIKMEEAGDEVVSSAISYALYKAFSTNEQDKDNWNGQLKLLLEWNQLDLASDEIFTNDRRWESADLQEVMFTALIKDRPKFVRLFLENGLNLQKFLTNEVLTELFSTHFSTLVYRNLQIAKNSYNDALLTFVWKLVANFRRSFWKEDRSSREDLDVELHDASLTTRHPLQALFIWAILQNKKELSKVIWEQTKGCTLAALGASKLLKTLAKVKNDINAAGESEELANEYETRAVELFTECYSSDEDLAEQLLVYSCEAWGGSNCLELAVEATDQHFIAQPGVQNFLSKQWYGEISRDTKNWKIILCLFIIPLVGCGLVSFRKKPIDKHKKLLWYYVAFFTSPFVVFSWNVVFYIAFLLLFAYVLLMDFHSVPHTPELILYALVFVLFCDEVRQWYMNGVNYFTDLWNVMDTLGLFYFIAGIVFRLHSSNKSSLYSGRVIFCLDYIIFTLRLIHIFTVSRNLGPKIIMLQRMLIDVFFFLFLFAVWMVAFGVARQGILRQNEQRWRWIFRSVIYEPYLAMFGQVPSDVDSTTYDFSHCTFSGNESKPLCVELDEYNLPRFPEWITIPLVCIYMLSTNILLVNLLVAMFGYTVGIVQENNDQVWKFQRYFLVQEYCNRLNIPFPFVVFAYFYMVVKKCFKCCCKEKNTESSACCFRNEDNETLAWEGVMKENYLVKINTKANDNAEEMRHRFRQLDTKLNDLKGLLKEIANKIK
Excerpt: A recent research study using Patch-Clamp, among other techniques, established that menthol occupies a cavity within the TRPM8 S1–S4 transmembrane helix, with the OH group forming an H-bond with the δ-NH of R842 residue, and Van der Waals interactions among the methyl groups of the ^iPr moiety and residues I846 and L843 [41].
This is evident by a negligible current at negative potentials and a linear intensification of the ohmic current at positive voltages. When applying compound 34 at a concentration of […], a noticeable reduction in menthol-induced activity at depolarizing voltages was observed (indicated by the red line) compared to menthol alone. Dose–response relationships for both tested compounds were established through triplicate experiments at various concentrations, applying a holding voltage of −60 mV (as shown in Figure 2B).
as §2
Figure 2 Compound 34 blocks TRPM8-mediated responses evoked by menthol in rTRPM8-expressing HEK293 cells. (A) IV curves obtained after exposure to vehicle solution (green trace), 100 µM menthol (blue trace) and 100 µM menthol + 10 µM 34 (red trace). Peak current data were expressed as pA/pF (to allow comparison among different size cells). Each point is the mean ± SEM of n = 15. (B) Concentration/response curves for rTRPM8 current blockade by 34 at a holding voltage of −60 mV. […]

[7] = target: T5, hTRPV1 (Homo sapiens, UniProt Q8NER1); parameters: method as in PMID 35269831; conditions: model compound; cited from earlier work
T5 construct: Eurofins-CEREP or Eurofins-PANLABS (contract assay)
T5 sequence (Q8NER1 whole entry): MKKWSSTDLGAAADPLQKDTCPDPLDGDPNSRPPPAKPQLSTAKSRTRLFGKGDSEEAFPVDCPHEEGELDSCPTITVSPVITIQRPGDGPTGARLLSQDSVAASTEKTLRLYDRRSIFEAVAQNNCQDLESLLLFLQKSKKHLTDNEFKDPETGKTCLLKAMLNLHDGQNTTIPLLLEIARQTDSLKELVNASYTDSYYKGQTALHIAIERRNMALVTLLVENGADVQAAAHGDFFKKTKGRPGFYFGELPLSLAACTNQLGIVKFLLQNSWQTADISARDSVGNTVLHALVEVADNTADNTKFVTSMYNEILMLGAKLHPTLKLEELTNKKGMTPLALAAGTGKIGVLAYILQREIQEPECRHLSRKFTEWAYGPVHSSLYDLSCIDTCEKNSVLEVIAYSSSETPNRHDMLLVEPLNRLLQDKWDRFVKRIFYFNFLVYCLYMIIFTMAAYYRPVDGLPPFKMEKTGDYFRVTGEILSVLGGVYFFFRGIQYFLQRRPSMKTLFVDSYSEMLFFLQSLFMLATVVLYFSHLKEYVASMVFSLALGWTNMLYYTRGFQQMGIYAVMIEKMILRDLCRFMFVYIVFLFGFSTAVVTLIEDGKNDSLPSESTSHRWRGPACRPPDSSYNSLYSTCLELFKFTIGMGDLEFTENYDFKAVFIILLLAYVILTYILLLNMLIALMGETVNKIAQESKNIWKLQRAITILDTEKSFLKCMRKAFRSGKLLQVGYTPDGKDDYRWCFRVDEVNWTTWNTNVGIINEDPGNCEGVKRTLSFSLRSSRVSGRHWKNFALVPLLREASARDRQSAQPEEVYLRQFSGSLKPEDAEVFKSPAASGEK

[8] = target: hCGRPR (Homo sapiens, UniProt O60894+Q16602); experiment: Radioligand binding at CGRP receptor; conditions: radioligand [125]hGCRPα
Excerpt: as §3

[9] = target: T5, hTRPV1; experiment: TRPV1 channel Ca2+ microfluorimetry (capsaicin 30 nM); assay type: cell-based; conditions: 10 μM; agonist capsaicin 30 nM
Excerpt: as §1, §2

[10] = test system: dorsal root ganglia (DRG) sensory neurons; experiment: Resting membrane potential of DRG sensory neurons (current clamp Patch-Clamp); assay type: cell-based; conditions: 10 µM
Method: We also investigated the effect of β-lactams derivatives on the resting membrane potential (RMP) of dorsal root ganglia (DRG) sensory neurons.
(A) Representative recordings of resting membrane potential measured under current clamp configuration. The traces show the action potentials (APs) firings from DRG neurons elicited by 100 μM menthol (left trace) or in the presence of vehicle (0.5% DMSO) or the β-lactams derivatives ([…]). (B) Changes in the Vm in the absence and in the presence of 10 μM of the β-lactams derivatives. Data were analyzed by one-way ANOVA followed by Bonferroni post hoc test for multiple comparisons (ns = no significance, **** p < = 0.0001) and given as mean ± SEM; n ≥ 40 cells from 4 cultures.

[11] = test system: oxaliplatin-induced cold hypersensitivity; experiment: Oxaliplatin-induced cold allodynia in mice (acetone drop test); assay type: in vivo
Excerpt: It is established that treatments with the chemotherapeutic drug oxaliplatin (OXA) induce painful peripheral neuropathy, known as CIPN, which becomes more pronounced in cold conditions. The TRPM8 channel has been implicated in mouse models of CIPN pain induced by OXA [19, 51]. In fact, the OXA-induced peripheral neuropathy mouse model is being used for the pharmacological characterization of TRPM8 antagonists. For this peripheral neuropathy assay, mice were subcutaneously (s.c.) injected with OXA at a dose of 6 mg/kg dose on days 1, 3 and 5 to male mice to induce increased sensitivity to cold, which can be monitored through the acetone drop test.
Consequently, compounds 34 and 35 have been tested for their ability to alleviate OXA-induced cold hypersensitivity after intraplantar administration (i.pl., 3, 1 and 0.1 μg). […] This effect was observed 15 min post-administration and sustained up to 60 min.
as §2
Figure 4 Effects of compounds 34 (A) and 35 (B) on the oxaliplatin (OXP)-induced cold hypersensitivity (drop acetone test). Peripheral neuropathy was induced in male mice by injecting OXA (6 mg/kg, s.c.) on days 1, 3 and 5. Control animals were treated with vehicle. Compounds 34 (A) and 35 (B) (3 µg/i.pl., 1 µg/i.pl. and 0.1 µg/i.pl.) were administered to the OXP-treated animals, and the time-course of cold hypersensitivity was measured. Data are given ± SEM (n = 5). Statistical analysis, comparing with oxaliplatin-treated mice, was performed by two-way ANOVA followed by post hoc Bonferroni test by multiple comparisons: * […], ** p < 0.01, **** p < 0.0001.

[12] = target: T6, rat TRPM8 channel (rTRPM8) (Rattus norvegicus, UniProt Q8R455); experiment: Ca2+ microfluorimetry, menthol-induced Ca2+ entry in HEK293 cells overexpressing rTRPM8; assay type: cell-based; conditions: Table 3; rTRPM8, HEK293, activation by 100 µM menthol
T6 construct: expressed in transfected cells
T6 sequence (Q8R455 whole entry): as the sequence (Q8R455 whole entry) above
Method: The diastereomeric 1,4,4-trisubstitutes β-lactams were evaluated as modulators of the TRPM8 channel by calcium microfluorimetry assays. These assays use a Human Embryonic Kidney 293 (HEK293) cell line that stably overexpressed rat TRPM8 channel (rTRPM8). […] Three separated experiments in triplicate were used.
The initial biological evaluation of this series of 1,3,4,4-tetrasubstituted β-lactams was performed by calcium microfluorimetry assays using the indicated HEK293 cell line overexpressing rTRPM8 channels.
as §2

[13] = target: hTRPM3 (Homo sapiens, UniProt Q9HCF6); experiment: TRPM3 channel Ca2+ microfluorimetry (pregnenolone sulfate 50 µM); assay type: cell-based; conditions: 10 µM; read-out: degree of inhibition in the Ca^2+ influx induced by pregnenolone sulfate (TRPM3)
hTRPM3, sequence (Q9HCF6 whole entry): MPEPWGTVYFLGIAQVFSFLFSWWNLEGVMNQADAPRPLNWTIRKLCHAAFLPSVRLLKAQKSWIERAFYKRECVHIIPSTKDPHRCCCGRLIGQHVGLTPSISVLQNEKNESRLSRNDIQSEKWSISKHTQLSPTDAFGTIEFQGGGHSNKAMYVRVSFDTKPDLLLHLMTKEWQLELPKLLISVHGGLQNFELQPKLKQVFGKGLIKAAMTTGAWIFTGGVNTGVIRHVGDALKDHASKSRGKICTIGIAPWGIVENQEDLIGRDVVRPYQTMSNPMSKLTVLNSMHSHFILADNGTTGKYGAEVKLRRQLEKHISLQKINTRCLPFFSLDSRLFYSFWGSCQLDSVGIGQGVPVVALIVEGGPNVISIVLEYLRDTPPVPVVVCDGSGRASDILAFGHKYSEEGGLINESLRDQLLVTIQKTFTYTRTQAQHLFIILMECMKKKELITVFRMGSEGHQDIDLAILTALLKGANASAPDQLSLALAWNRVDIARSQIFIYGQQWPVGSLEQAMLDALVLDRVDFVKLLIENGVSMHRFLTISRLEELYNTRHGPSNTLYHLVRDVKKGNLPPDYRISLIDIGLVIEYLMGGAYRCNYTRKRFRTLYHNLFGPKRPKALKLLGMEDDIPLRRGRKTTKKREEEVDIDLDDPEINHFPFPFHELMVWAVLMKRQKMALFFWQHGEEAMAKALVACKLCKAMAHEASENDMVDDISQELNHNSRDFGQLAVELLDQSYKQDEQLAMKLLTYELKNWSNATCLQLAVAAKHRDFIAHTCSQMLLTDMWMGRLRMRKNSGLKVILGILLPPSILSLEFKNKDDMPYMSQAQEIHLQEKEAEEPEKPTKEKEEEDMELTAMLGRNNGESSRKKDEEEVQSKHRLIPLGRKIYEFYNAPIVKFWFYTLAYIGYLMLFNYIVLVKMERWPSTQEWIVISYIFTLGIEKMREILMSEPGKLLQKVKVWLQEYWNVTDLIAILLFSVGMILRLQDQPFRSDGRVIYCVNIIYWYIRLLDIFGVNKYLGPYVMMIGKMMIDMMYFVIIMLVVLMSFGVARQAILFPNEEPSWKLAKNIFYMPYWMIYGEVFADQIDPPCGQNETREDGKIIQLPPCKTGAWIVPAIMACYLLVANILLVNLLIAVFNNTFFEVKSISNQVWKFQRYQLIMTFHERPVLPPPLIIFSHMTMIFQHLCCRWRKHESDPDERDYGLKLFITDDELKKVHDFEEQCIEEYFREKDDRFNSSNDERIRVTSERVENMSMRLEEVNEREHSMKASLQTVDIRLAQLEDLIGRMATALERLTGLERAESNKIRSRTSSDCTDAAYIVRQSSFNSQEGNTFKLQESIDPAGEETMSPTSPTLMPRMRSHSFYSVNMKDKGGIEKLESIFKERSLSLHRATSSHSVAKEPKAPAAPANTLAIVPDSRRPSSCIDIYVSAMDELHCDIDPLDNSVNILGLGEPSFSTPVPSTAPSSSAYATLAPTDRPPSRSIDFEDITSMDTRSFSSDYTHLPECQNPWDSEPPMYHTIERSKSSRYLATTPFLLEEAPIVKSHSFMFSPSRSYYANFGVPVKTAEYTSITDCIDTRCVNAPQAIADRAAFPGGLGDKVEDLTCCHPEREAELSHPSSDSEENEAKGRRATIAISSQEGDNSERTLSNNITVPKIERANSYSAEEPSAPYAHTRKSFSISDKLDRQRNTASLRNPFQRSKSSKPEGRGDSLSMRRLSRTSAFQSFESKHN
Method: as §1, with “First,” for “The effects of compound 34 have been evaluated on different ion channels and receptors implicated in pain-related processes to assess the selectivity for TRPM8 channels. First,”
as §2

[14] = target: T7, hTRPM8 (Homo sapiens, UniProt Q7Z2W7); experiment: Ca2+ microfluorimetry in HEK293 cells expressing human TRPM8; assay type: cell-based; conditions: activation by 100 µM menthol; read-out: Ca^2+ Microfluorimetry Assays hTRPM8 IC50
T7 construct: expressed in transfected cells; host or cells: HEK293
T7 sequence (Q7Z2W7 whole entry): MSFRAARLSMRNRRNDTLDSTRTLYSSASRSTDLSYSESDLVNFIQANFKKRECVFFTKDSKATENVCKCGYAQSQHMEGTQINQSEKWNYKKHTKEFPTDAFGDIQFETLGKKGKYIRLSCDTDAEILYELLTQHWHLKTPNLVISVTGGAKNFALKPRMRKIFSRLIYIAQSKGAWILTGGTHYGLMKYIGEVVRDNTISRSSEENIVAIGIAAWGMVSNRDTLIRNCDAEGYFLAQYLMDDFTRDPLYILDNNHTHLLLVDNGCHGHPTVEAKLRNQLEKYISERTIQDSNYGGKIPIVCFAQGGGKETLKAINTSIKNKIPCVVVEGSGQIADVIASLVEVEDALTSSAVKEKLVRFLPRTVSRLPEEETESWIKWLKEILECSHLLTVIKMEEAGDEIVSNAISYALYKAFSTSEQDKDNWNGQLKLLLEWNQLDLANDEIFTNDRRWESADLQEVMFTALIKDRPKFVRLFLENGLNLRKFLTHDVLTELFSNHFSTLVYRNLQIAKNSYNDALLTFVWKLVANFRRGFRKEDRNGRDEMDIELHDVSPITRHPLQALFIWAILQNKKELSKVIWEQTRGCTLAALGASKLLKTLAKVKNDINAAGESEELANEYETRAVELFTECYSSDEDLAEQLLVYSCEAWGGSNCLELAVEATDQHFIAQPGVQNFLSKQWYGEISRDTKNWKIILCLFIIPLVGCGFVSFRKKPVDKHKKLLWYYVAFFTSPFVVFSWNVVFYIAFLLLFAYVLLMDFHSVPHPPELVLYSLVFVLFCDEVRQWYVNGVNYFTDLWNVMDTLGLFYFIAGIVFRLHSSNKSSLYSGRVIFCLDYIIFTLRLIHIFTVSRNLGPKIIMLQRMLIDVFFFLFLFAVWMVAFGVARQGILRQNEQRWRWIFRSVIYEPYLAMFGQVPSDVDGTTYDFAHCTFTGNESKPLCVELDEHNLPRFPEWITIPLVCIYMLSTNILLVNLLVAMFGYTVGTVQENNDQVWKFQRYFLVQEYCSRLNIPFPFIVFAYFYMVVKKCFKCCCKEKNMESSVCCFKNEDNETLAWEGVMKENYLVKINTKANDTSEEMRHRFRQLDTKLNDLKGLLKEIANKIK
Method: To further characterize this family of compounds, calcium microfluorimetry assays were conducted using the HEK293 cell line, which expresses the human isoform of the TRPM8 channel. Amide derivatives 34 and 35 were selected, and their outcomes were compared with those of the model compound 1 (Table 4). […] This behavior is not particular of these β-lactams, but it is similar to those observed for other TRPM8 antagonists.
as §2

Q: With `C[C@@H]1C(=O)N(C[C@H](Cc2ccccc2)N(Cc2ccccc2)Cc2ccccc2)[C@]1(Cc1ccccc1)C(=O)OC(C)(C)C` [Compound 1] as the molecule, how does the inhibition at 10 µM [1] read?
A: -6.3 ± 5.9%

Q: What about the inhibition at 10 µM [2] of the same molecule?
A: 7.3 ± 0.3%

Q: And the inhibition at 10 µM [3]?
A: 4.2 ± 1.1%

Q: What about the inhibition at 10 µM [4] of the same molecule?
A: -4.1 ± 3.1%

Q: What about the inhibition at 10 µM [5] of the same molecule?
A: 6 ± 0.9%

Q: And the IC50 [6]?
A: 600 ± 1660 nM

Q: And the “activation on the TRPV1 channel” value [7]?
A: about 30%

Q: And the inhibition at 10 µM [8]?
A: -1 ± 4.3%

Q: And the inhibition at 10 µM [9]?
A: 19.4 ± 1.7%

Q: Which results are given for `C[C@@H]1C(=O)N(C[C@H](Cc2ccccc2)N(Cc2ccccc2)Cc2ccccc2)[C@]1(Cc1ccccc1)C(=O)NCc1ccccc1` [Compound 35, 4S-Benzyl-4-[N-(benzyl)-carbamoyl]-3S-methyl-1-[(2′S-dibenzylamino-3′-phenyl)prop-1′-yl]-2-oxoazetidine]?
A: effect on resting membrane potential (RMP) [10]: did not alter the RMP; IC50 [6]: 480 ± 1330 nM; time the antiallodynic effect is sustained ([11]; i.pl., observed from 15 min post-administration): up to 60 min; effect on cold-induced paw licking ([11]; male mice, OXA 6 mg/kg s.c. days 1, 3, 5, i.pl. 3, 1 and 0.1 μg): dose-dependent and significant reduction; IC50 [12]: 490 ± 1270 nM; inhibition at 10 µM [13]: 4.1 ± 10.8%; IC50 [14]: 3330 ± 1280 nM

— publication PMC10573892, “β-Lactam TRPM8 Antagonists Derived from Phe-Phenylalaninol Conjugates: Structure–Activity Relationships and Antiallodynic Activity” (International Journal of Molecular Sciences, 2023)
